For orientation: MIC means the lowest concentration that inhibits growth of the organism.

Assay type in all cases: cell-based
The test system of test [1] is S. aureus strain MP-12. Description: Broth dilution MIC determination (CLSI) against S. aureus strain MP-12. The following applies: for MIC: Staphylococcus aureus, MP12, strain MP-12. The gist of the method:
(§1)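 Growth inhibition endpoint determined under CLSI broth dilution conditions. Categorical MIC output in mg/L: +++ (≤4), ++ (≥8, <32), + (≥32).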
Background: In broth dilution the organism is exposed to a series of concentrations in liquid medium.

The test system of test [2] is E. coli strain MP-4. Briefly: Broth dilution MIC determination (CLSI) against E. coli strain MP-4. The following applies: Escherichia coli, MP4. The gist of the method:
as §1

In test [3] the test system is K. pneumoniae strain MP-548. Briefly: Broth dilution MIC determination (CLSI) against K. pneumoniae strain MP-548. The following applies: Klebsiella pneumoniae, MP548. The essentials: as §1
The subject of test [4] is A. baumannii strain MP-15. Description: Broth dilution MIC determination (CLSI) against A. baumannii strain MP-15. The following applies: Acinetobacter baumannii, MP15. The essentials: as §1
Test [5] relates to P. aeruginosa strain MP-3. Description: Broth dilution MIC determination (CLSI) against P. aeruginosa strain MP-3. The following applies: Pseudomonas aeruginosa, MP3. The gist of the method:
as §1

In brackets after ≈: the same amount, converted by molar mass.

As to `C=CC1CC(N(C)C)C(O)[C@H](O[C@@H]2[C@@H](C)C(=O)[C@]3(C)CCOC2(C)C[C@@H](C)CN[C@H](C)[C@H]2NC(=O)O[C@]2(C)[C@@H](CC)OC3=O)O1` (some centres unmarked) [Compound 211], the MIC was not above 4 µg/mL in test [1]; not above 4 µg/mL in test [2]; not above 4 µg/mL in test [3]; not above 4 µg/mL in test [4]; not below 32 µg/mL in test [5].
As for `CC[C@H]1OC(=O)[C@]2(C)CCOC(C)(C[C@@H](C)CN[C@H](C)[C@H]3NC(=O)O[C@@]31C)[C@H](O[C@@H]1O[C@H](CNC34CC(C3)C4)C[C@H](N(C)C)[C@H]1O)[C@@H](C)C2=O` [Compound 212], the “MIC against S. aureus (MP-12)” value in test [1] (strain MP-12) is reported as “+++ (values less than or equal to 4 mg/L)”. Also, the MIC was not above 4 µg/mL in test [2], 8 to 32 µg/mL (≈ 11.3 to 45.3 µM) in test [3], 8 to 32 µg/mL (≈ 11.3 to 45.3 µM) in test [4] and not below 32 µg/mL in test [5].
For `CC[C@H]1OC(=O)[C@@]2(C)CCOC(C)(C[C@@H](C)CN[C@H](C)[C@H]3NC(=O)O[C@@]31C)[C@H](O[C@@H]1OC(CNC(C)C)CC(N(C)C)C1O)[C@@H](C)C2=O` (some centres unmarked) [Compound 213], the MIC in test [1] was not above 4 µg/mL; in test [2], not above 4 µg/mL; in test [3], not above 4 µg/mL; in test [4], not below 32 µg/mL; in test [5], not below 32 µg/mL.
Turning to `CC[C@H]1OC(=O)[C@@]2(C)CCOC(C)(C[C@@H](C)CN(C)[C@H](C)[C@H]3NC(=O)O[C@@]31C)[C@H](O[C@@H]1OC(CNC(C)C)CC(N(C)C)C1O)[C@@H](C)C2=O` (some centres unmarked) [Compound 214], the MIC was not above 4 µg/mL in test [1]; not above 4 µg/mL in test [2]; not above 4 µg/mL in test [3]; not below 32 µg/mL in test [4]; not below 32 µg/mL in test [5].
For the molecule `CC[C@H]1OC(=O)[C@@]2(C)CCOC(C)(C[C@@H](C)CN(C)[C@H](C)[C@H]3NC(=O)O[C@@]31C)[C@H](O[C@@H]1OC(CN)CC(N(C)C)C1O)[C@@H](C)C2=O` (some centres unmarked) [Compound 218], the MIC was 8 to 32 µg/mL (≈ 12.2 to 48.9 µM) in test [1]; 8 to 32 µg/mL (≈ 12.2 to 48.9 µM) in test [2]; not below 32 µg/mL in test [3]; not below 32 µg/mL in test [4]; not below 32 µg/mL in test [5].
Regarding `CC[C@H]1OC(=O)[C@@]2(C)CCOC(C)(C[C@@H](C)CN[C@H](C)[C@H]3NC(=O)O[C@@]31C)[C@H](O[C@@H]1OC(C)CC(N(C)C)C1O)[C@@H](C)C2=O` (some centres unmarked) [Compound 219], the MIC in test [1] was not above 4 µg/mL; in test [2], not above 4 µg/mL; in test [3], not above 4 µg/mL; in test [4] it was 8 to 32 µg/mL (≈ 12.8 to 51.1 µM); in test [5], not below 32 µg/mL.
As for `CC[C@H]1OC(=O)[C@@]2(C)CCOC(C)(C[C@@H](C)CN(C(=O)C(F)(F)F)[C@H](C)[C@H]3NC(=O)O[C@@]31C)[C@H](O[C@@H]1OC(C)CC(N(C)C)C1O)[C@@H](C)C2=O` (some centres unmarked) [Compound 220], the MIC in test [1], in test [2], in test [3], in test [4] and in test [5] was not below 32 µg/mL each time.
On to `CC[C@H]1OC(=O)[C@@]2(C)CCOC(C)(C[C@@H](C)CN(CC)[C@H](C)[C@H]3NC(=O)O[C@@]31C)[C@H](O[C@@H]1OC(C)CC(N(C)C)C1O)[C@@H](C)C2=O` (some centres unmarked) [Compound 221], for which the MIC in test [1] was not above 4 µg/mL; in test [2] it was not above 4 µg/mL; in test [3], not above 4 µg/mL; in test [4], not below 32 µg/mL; in test [5] it was not below 32 µg/mL.
For `CC[C@H]1OC(=O)[C@@]2(C)CCOC(C)(C[C@@H](C)CN(C)[C@H](C)[C@H]3NC(=O)O[C@@]31C)[C@H](O[C@@H]1OC(C)CC(N(C)C)C1O)[C@@H](C)C2=O` (some centres unmarked) [Compound 223], the MIC is not above 4 µg/mL in test [1]; not above 4 µg/mL in test [2]; not above 4 µg/mL in test [3]; 8 to 32 µg/mL (≈ 12.5 to 50 µM) in test [4]; not below 32 µg/mL in test [5].
With `C=CC1CO[C@@]2(C)C[C@@H](C)CN[C@H](C)[C@H]3NC(=O)O[C@]3(C)[C@@H](CC)OC(=O)[C@@]1(C)C(=O)[C@H](C)[C@H]2OC1OC(C)CC(N(C)C)C1O` (some centres unmarked) [Compound 224], the MIC in test [1], in test [2], in test [3], in test [4] and in test [5] was not below 32 µg/mL in each case.
`CC[C@H]1OC(=O)[C@]2(C)CCC(=O)CO[C@](C)(C[C@@H](C)CN[C@H](C)[C@H]3NC(=O)O[C@@]31C)[C@H](OC1OC(C)CC(N(C)C)C1O)[C@@H](C)C2=O` (some centres unmarked) [Compound 226]: the MIC in test [1], in test [2], in test [3], in test [4] and in test [5] was not below 32 µg/mL each time.
Consider `CC[C@H]1OC(=O)[C@@]2(C)CC/C(=N\O)CO[C@](C)(C[C@@H](C)CN[C@H](C)[C@H]3NC(=O)O[C@@]31C)[C@H](OC1OC(C)CC(N(C)C)C1O)[C@@H](C)C2=O` (some centres unmarked) [Compound 227], for which the MIC in test [1], in test [2], in test [3], in test [4] and in test [5] was not below 32 µg/mL in each case.
Take `CC[C@H]1OC(=O)[C@]2(C)CC/C(=N\O)CO[C@](C)(C[C@@H](C)CN[C@H](C)[C@H]3NC(=O)O[C@@]31C)[C@H](OC1OC(C)CC(N(C)C)C1O)[C@@H](C)C2=O` (some centres unmarked) [Compound 228]: the MIC in test [1], in test [2], in test [3], in test [4] and in test [5] was not below 32 µg/mL throughout.

(Values after patent US11673910B2, “Macrolides with modified desosamine sugars and uses thereof” (Zikani Therapeutics, Inc., priority 2017, dated 2023).)
